The assay has as its system Pyrenophora teres. In words: Pyrenophora teres test (barley)/shoot treatment, field experiment. The class given is in vivo, Pyrenophora teres on barley. The note with it: shoot treatment after flag leaf emergence, 62.5 g/ha, scoring long-term effect, 41 days post-application. How it is done:
Pyrenophora teres Test (Barley)/shoot Treatment, Field Experiment
To prepare a suitable preparation of active substance, a “commercially available” formulation of active substance or active substance combination is diluted with water to give the desired concentration.
The active substance preparation is applied at the application rate stated, after the flag leaf has emerged.
The evaluation is carried out at the point in time at which the disease symptoms are complete and readily recognizable. In this context, 0% means an efficacy which corresponds to that of the control, while an efficacy of 100% means that no disease is observed.
The expected efficacy in % of the untreated control was calculated using the equation
In this equation, x and y mean the efficacy—expressed in % of the untreated control—which the two products achieve when applied separately. If the actual efficacy of the active substance combination exceeds the value for the expected efficacy (E) as calculated by the above formula, then the effect is superadditive, i.e. a synergistic effect exists.

SMILES strings stand for the structures.

Turning to `Cn1cc(C(=O)Nc2ccc(F)cc2-c2ccc(Cl)c(Cl)c2)c(C(F)F)n1` [III-23, N-(3′,4′-dichloro-5-fluoro-1,1′-biphenyl-2-yl)-3-(difluoromethyl)-1-methyl-1H-pyrazole-4-carboxamide], the “Efficacy in % found” value amounted to 40%.

For the origin of these results see patent US8039013B2, “Synergistic fungidical active substance combinations” (Bayer CropScience AG, priority 2004, dated 2011).
